In brackets after ≈: the same amount, converted by molar mass. Where two headings read alike, the source gives them in different places. Marks after values point to notes of the source that are not given here.
Tests used:
[1] = Dissolution rate of medroxyprogesterone acetate from tablets; assay type: physicochemical; conditions: tablet with Hydroxyethyl-β-cyclodextrin (MS 0.43) versus same tablet excipients without β-cyclodextrin ether
Method: In 100 ml Wasser wurden 7 g Hydroxyethyl-β-cyclodextrin (MS 0.43) sowie 0,5 g Medroxyprogesteronacetat gelöst. Anschließend wurde das Wasser auf einem Rotationsverdampfer abgezogen. Der Rückstand […] wurde pulverisiert und mit 366 mg Calcium-hydrogenphosphat. 2H2O, 60 mg Maisstärke, 120 mg Cellulosepulver(mikrokristallin), 4,2 mg hochdisperse Kieselsäure (Aerosil® 200) und 4,8 mg Magnesiumstearat zu Tabletten mit einem Endgewicht von 630,0 mg und pro Einzeldosis 5 mg Wirkstoff verarbeitet. Die Lösungsgeschwindigkeit des Medroxyprogesteronacetats aus dieser Zubereitung ist etwa 21 mal höher als bei Einsatz der gleichen Tablettenhilfsstoffe ohne Zusatz des β-Cyclodextrinethers.

[2] = Saturation solubility in phosphate buffer with and without 10 % hydroxypropyl-β-cyclodextrin (MS 0.35); conditions: for Verh.S1 zu S2: given as 1: x; for solubility thermodynamic at 24 h: phosphate buffer
Method: A. Unter Verwendung einer 10 %-igen Hydroxypropyl-β-cyclodextrinlösung (MS 0.35) in Phosphatpufferlösung wurde unter denselben Bedingungen wie in Beispiel 1 die Sättigungslöslichkeit bei 25°C für verschiedene Arzneistoffe bestimmt. In Tabelle 1 sind die Sättigungslöslichkeit S1 in Phosphatpufferlösung und S2 in Phosphatpufferlösung unter Zusatz von 10 % Hydroxypropyl-β-cyclodextrin angegeben. Tabelle 1

[3] = Storage stability of indometacin solutions at 21°C, HPLC content; assay type: physicochemical; conditions: aqueous buffer; concentration of the saturated solution in phosphate buffer (solution A); read-out: gesättigte Lösung in Phosphatpufferlösung
Method: In 10 ml Phosphatpufferlösung wurden bei 25°C 0,7 g Hydroxyethyl-β-cyclodextrin (MS 0.43) und 0,04 g Indometacin bis zur klaren Lösung eingearbeitet. Diese wurde durch ein Membranfilter (0,22 µm) filtriert und unter Laminarflow in eine vorsterilisierte Injektionsflasche abgefüllt, die bei 21°C eingelagert wurde (B). Parallel dazu wurde eine gesättigte Indometaeinlösung in Phosphatpufferlösung (0,21 mg/ml) unter gleichen Bedingungen aufbewahrt (A). Die hochdruckflüssigkeitschromatographisch ermittelten Wirkstoff-Konzentrationen sind in Tabelle 3 wiedergegeben. Die wesentlich verbesserte Stabilität des erfindungsgemäßen Präparates ist offensichtlich. Tabelle 3

[4] = Saturation solubility with and without 4 % hydroxypropyl-methyl-β-cyclodextrin (DS 0,96; MS 0,43); assay type: physicochemical
Text: B. In ähnlicher Weise wurde die Löslichkeit von Arzneistoffen in einer 4 %-igen wässrigen Lösung von Hydroxypropyl-methyl-β-cyclodextrin (DS = 0,96; MS = 0,43) untersucht. Die erhaltenen Ergebnisse sind in der nachfolgenden Tabelle 2 zusammengefaßt, wobei für jeden Arzneistoff das Verhältnis R von Sättigungslöslichkeit in Wasser bzw. beim angegebenen pH-Wert mit und ohne Zusatz des β-Cyclodextrinderivats angegeben ist.

[5] = system: roten Blutkörperchen (menschlichen Ursprungs); assay type: cell-based; conditions: human, 30 min
Method: In einer weiteren Versuchsreihe wurde die hämolytische Wirkung der Methylether gemäß DE-A-3 118 218 mit derjenigen eines erfindungsgemäß verwendeten Ethers verglichen. Dazu wurden 100 µl einer physiologischen Kochsalzlösung mit einem Cyclodextringehalt von 10 %, 800 µl eines Puffers (400 mg MOPS, 36 mg Na2HPO4·2 H2O, 1,6 g NaCl in 200 ml H2O) und 100 µl einer Suspension von roten Blutkörperchen (menschlichen Ursprungs, dreimal mit Kochsalzlösung gewaschen), 30 Min. lang bei 37°C gemischt. Anschließend wurde zentrifugiert und die Extinktion bei 540 mn bestimmt.
Kontrollen: • a) 100 µl Kochsalzlösung + Puffer → 0 % Hämolyse • b) 900 µl Wasser → 100 % Hämolyse
Die gefundenen Ergebnisse sind in der nachfolgenden Tabelle 6 zusammengefaßt, wobei die Konzentrationen angegeben sind, bei denen eine 50 %-ige bzw. eine 100 % Hämolyse stattfand. Tabelle 6

Ratten = test: Acute intravenous toxicity in rats; assay type: in vivo; conditions: rat, i.v.
Text: (§1) Die akute intravenöse Toxizität von einigen β-Cyclodextrinen wurde an Ratten untersucht, wobei die nachfolgenden Ergebnisse erhalten wurden. Dabei zeigte sich, daß die Toxizität der erfindungsgemäß eingesetzten Derivate überraschend eine ganze Größenordnung niedriger ist. Tabelle 5

[6] = with the 2,6-Di-O-methylderivat of β-cyclodextrin; cited from earlier work
[7] = phosphate buffer, pH 6.6
Text: Die in den Beispielen genannte Phosphatpuffer-Lösung hatte einen pH-Wert von 6.6 und folgende Zusammensetzung:

[8] = in water; cited from earlier work
[9] = Acute intravenous toxicity in rats; assay type: in vivo, Ratten; conditions: rat, in vivo, iv
Text: as §1

[10] = in water, 4 % Hydroxypropyl-methyl-β-cyclodextrin

CC(=O)OC1(C(C)=O)CCC2C3CC(C)C4=CC(=O)CCC4(C)C3CCC21C (stereo not drawn) [Medroxyprogesteronacetat]
Lösungsgeschwindigkeit [1]: ~21 mal höher

C[C@@H]1C[C@H]2[C@@H]3CCC4=CC(=O)C=C[C@]4(C)[C@@]3(F)[C@@H](O)C[C@]2(C)[C@@]1(O)C(=O)CO [Dexamethason]
Verh.S1 zu S2 [2]: 172,0
solubility thermodynamic at 24 h ([2]; 10% hp-beta-cd, pH 6.6): 14300 µg/mL (≈ 36400 µM)
solubility thermodynamic at 24 h ([2]; pH 6.6, aqueous buffer): 83 µg/mL (≈ 211 µM)

COc1ccc2c(c1)c(CC(=O)O)c(C)n2C(=O)c1ccc(Cl)cc1 [Indometacin]
Verh.S1 zu S2 [2]: 30,1
solubility thermodynamic at 24 h ([2]; 10% hp-beta-cd, pH 6.6): 5720 µg/mL (≈ 16000 µM)
solubility thermodynamic at 24 h ([2]; pH 6.6, aqueous buffer): 190 µg/mL (≈ 531 µM)
solubility [3]: 210 µg/mL (≈ 587 µM)

COC(=O)Nc1nc2cc(C(=O)c3ccc(F)cc3)ccc2[nH]1 [Flubendazol]
Verhältnis R von Sättigungslöslichkeit mit und ohne Zusatz des β-Cyclodextrinderivats [4, 10]: 30

Dimethyl-β-cyclodextrin [Dimethyl-β-cyclodextrin (DS = 2,0)]
C50 % (Konzentration, bei der eine 50 %-ige Hämolyse stattfand) [5]: 0,33%
C100 % (Konzentration, bei der eine 100 % Hämolyse stattfand) [5]: 0,5%
LD50 bei Ratten (i.v.) (Ratten): 200 - 207 mg/kg Körpergewicht

Hydroxypropyl-methyl-β-cyclodextrin
C50 % (Konzentration, bei der eine 50 %-ige Hämolyse stattfand) [5]: 1,5%
C100 % (Konzentration, bei der eine 100 % Hämolyse stattfand) [5]: 4%
hämolytische Wirkung [5]: 5 bis 8 mal geringer
LD50 bei Ratten (i.v.) (Ratten): > 2000* mg/kg Körpergewicht

Levocabastin
Verhältnis R von Sättigungslöslichkeit mit und ohne Zusatz des β-Cyclodextrinderivats ([4]; pH 7,4, 4 % Hydroxypropyl-methyl-β-cyclodextrin): 8
Verhältnis R von Sättigungslöslichkeit mit und ohne Zusatz des β-Cyclodextrinderivats ([4]; pH 9,5, 4 % Hydroxypropyl-methyl-β-cyclodextrin): 81

C[C@H]1O[C@@H](O[C@H]2[C@@H](O)C[C@H](O[C@H]3[C@@H](O)C[C@H](O[C@H]4CC[C@@]5(C)[C@H](CC[C@@H]6[C@@H]5CC[C@]5(C)[C@@H](C7=CC(=O)OC7)CC[C@]65O)C4)O[C@@H]3C)O[C@@H]2C)C[C@H](O)[C@@H]1O [Digitoxin]
Steigerung der Löslichkeit in Wasser [6]: 81,6 -fache

CCOC(=O)c1cncn1[C@H](C)c1ccccc1 [Etomidat]
Verhältnis R von Sättigungslöslichkeit mit und ohne Zusatz des β-Cyclodextrinderivats [4, 10]: 8,5

CC(=O)[C@H]1CC[C@H]2[C@@H]3CCC4=CC(=O)CC[C@]4(C)[C@H]3CC[C@]12C [Progesteron]
Verh.S1 zu S2 [2]: 1083,0
solubility thermodynamic at 24 h ([2]; 10% hp-beta-cd, pH 6.6): 7690 µg/mL (≈ 24500 µM)
solubility thermodynamic at 24 h ([2]; pH 6.6, aqueous buffer): 7.1 µg/mL (≈ 22.6 µM)

Fc1ccc(C(c2ccc(F)cc2)N2CCN(C/C=C/c3ccccc3)CC2)cc1 [Flunarizin]
Verhältnis R von Sättigungslöslichkeit mit und ohne Zusatz des β-Cyclodextrinderivats [4, 10]: 18

CN(C)C(=O)C(CCN1CCC(O)(c2ccc(Cl)cc2)CC1)(c1ccccc1)c1ccccc1 [Loperamid]
Verhältnis R von Sättigungslöslichkeit mit und ohne Zusatz des β-Cyclodextrinderivats [4, 10]: 62

Hydroxyethyl-β-cyclodextrin [Hydroxyethyl-β-cyclodextrin (MS 0.43)]
Sättigungslöslichkeit des Cyclodextrinderivates im Puffer [7]: 7,2 g/100 ml

Tubulazol
Verhältnis R von Sättigungslöslichkeit mit und ohne Zusatz des β-Cyclodextrinderivats [4, 10]: 43

Methyl-β-CD [Methyl-β-CD (DS = 1,79)]
C50 % (Konzentration, bei der eine 50 %-ige Hämolyse stattfand) [5]: 0,53%
C100 % (Konzentration, bei der eine 100 % Hämolyse stattfand) [5]: 0,8%

CN1C(=O)CN=C(c2ccccc2)c2cc(Cl)ccc21 [Diazepam]
Verh.S1 zu S2 [2]: 29,4

OC[C@H]1O[C@@H]2O[C@H]3[C@H](O)[C@@H](O)[C@@H](O[C@H]4[C@H](O)[C@@H](O)[C@@H](O[C@H]5[C@H](O)[C@@H](O)[C@@H](O[C@H]6[C@H](O)[C@@H](O)[C@@H](O[C@H]7[C@H](O)[C@@H](O)[C@@H](O[C@H]8[C@H](O)[C@@H](O)[C@@H](O[C@H]1[C@H](O)[C@H]2O)O[C@@H]8CO)O[C@@H]7CO)O[C@@H]6CO)O[C@@H]5CO)O[C@@H]4CO)O[C@@H]3CO [β-Cyclodextrin]
Wasserlöslichkeit [8]: 1,8 g pro 100 ml
LD50 [9]: 453 mg/kg

CC(=O)N1CCN(c2ccc(OCC3COC(Cn4ccnc4)(c4ccc(Cl)cc4Cl)O3)cc2)CC1 (stereo not drawn) [Ketoconazol]
Verhältnis R von Sättigungslöslichkeit mit und ohne Zusatz des β-Cyclodextrinderivats [4]: 85

CCC(C)n1ncn(-c2ccc(N3CCN(c4ccc(OCC5COC(Cn6cncn6)(c6ccc(Cl)cc6Cl)O5)cc4)CC3)cc2)c1=O (stereo not drawn) [Itraconazol]
Verhältnis R von Sättigungslöslichkeit mit und ohne Zusatz des β-Cyclodextrinderivats ([4]; pH 2): 75
Verhältnis R von Sättigungslöslichkeit mit und ohne Zusatz des β-Cyclodextrinderivats ([4]; pH 5): 96

COc1cc(N)c(Cl)cc1C(=O)NC1CCN(CCCOc2ccc(F)cc2)CC1OC (stereo not drawn) [Cisaprid]
Verhältnis R von Sättigungslöslichkeit mit und ohne Zusatz des β-Cyclodextrinderivats [4]: 3

Source: EP0149197B2, “Pharmaceutical compositions containing drugs which are sparingly soluble in water or instable and methods for their preparation” (priority 1983, dated 1985)
